Test results reported in article PMC6150237, “Study of Absorption Characteristics of the Total Saponins from Radix Ilicis Pubescentis in an In Situ Single-Pass Intestinal Perfusion (SPIP) Rat Model by Using Ultra Performance Liquid Chromatography (UPLC)” (Molecules : A Journal of Synthetic Chemistry and Natural …, 2017).

Tests used:
[1] = In situ single-pass intestinal perfusion (SPIP), saponins administrated in MDQ-TS form; assay type: in vivo, rat; settings: male, Sprague-Dawley, rat, other: in situ single-pass intestinal perfusion
In short: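 Fasted, urethane-anaesthetised male Sprague-Dawley rats had ~10 cm duodenum, jejunum and ileum segments perfused at 37 °C, 0.2 mL/min, with MDQ-TS at 1.25, 2.5 or 5.0 mg·mL^−1 in K-R buffer (0.5% DMSO). After 20 min steady state, effluent was collected every 10 min to 60 min and analysed by UPLC. Water flux was corrected gravimetrically, and Ka and Papp were calculated.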

[2] = tested on: rat duodenum; test: SPIP of MDQ-TS with or without amantadine (endocytosis inhibitor); assay type: in vivo; settings: MDQ-TS 2.5 mg/mL; for decrease of absorption compared with non-Amantadine added group: amantadine 2.5 mmol·L^−1
Protocol: (§1) MDQ-TS perfusion samples at low, middle, and high concentration levels of 1.25, 2.5, and 5.0 mg·mL^−1 were prepared by separately dissolving MDQ-TS in the minimum amount of DMSO and diluted with K-R buffer solution. The amount of DMSO was 0.5% in the final perfusion solutions. C1, C2, C3, C4, DC1, and DC2 perfusion samples with the concentration equivalent to the amount contained in 2.5 mg·mL^−1 of MDQ-TS were individually prepared in the same way. Verapamil, amantadine and EDTA were directly dissolved in the MDQ-TS perfusate with terminal concentrations of 200 μmol·L^−1, 2.5 mmol·L^−1, and 2.5 mmol·L^−1, accordingly, and used for investigating the mechanisms involved for absorption.
(§2) In situ single-pass intestinal perfusion (SPIP) studies were performed using an experimental design adapted from the literature with some modifications. Briefly, male Sprague-Dawley rats weighing 180–220 g were acclimatized for at least one week before the experiment, and fasted for 18 h with free access to water before the perfusion experiment. Rats were anesthetized with an intraperitoneal injection of urethane (30 mg·kg^−1 body weight), and kept on a homeothermic blanket to maintain normal body temperature. The abdomen was opened with a midline longitudinal incision, and three segments of rat intestine (duodenum, jejunum, and ileum) of approximately 10 cm each were carefully cannulated on two ends with plastic tubing. Initially, the perfusion solution free of drug (37 °C) was pumped by peristaltic pump (BT100-1F, Longer Pump Co., Baoding, China) through the cannulated segments at a flow rate of 1 mL/min for approximately 30 min in order to clean out any residual debris. Secondly, the perfusion solution containing a known concentration of substance (C1, C2, C3, C4, DC1, DC2, and MDQ-TS) was perfused at 37 °C through the intestinal lumen at a constant flow rate of 0.2 mL/min. The first 20 min of period corresponds to steady state, i.e., when the substance is in equilibrium with the intestinal membrane. After steady state, samples were collected from distal portion of duodenum, jejunum and ileum at 10 min intervals (0–10, 10–20, 20–30, 30–40, 40–50, 50–60 min) in pre-weighted vials. Samples were immediately frozen at −20 °C until analysis by validated UPLC. During the experiment, care was taken to avoid disturbance of the circulatory system and the exposed segment was covered with a piece of sterilized gauze to keep it warm and moist by frequent application of warm (37 °C) saline. The intestinum tenue maintained its viability and intact state without disrupting the blood supply throughout the experimental period. Finally, animals were sacrificed after depth anesthesia by intraperitoneal injection of urethane, according to protocols for euthanasia in experimental animals. After death, the intestinal segment was removed for measurements of length and inside diameter.
(§3) The net water flux in the in situ perfusion studies (water absorption and efflux in the intestinal segment) was determined by gravimetric method. The effective absorption rate constant (Ka) and effective apparent permeability (Papp) of compounds in the intestinal segments were calculated according to the following mathematical expression:(1) Ka=(1−CoutQout/CinQin)Q/V (2) Papp=−Qln(CoutQout/CinQin)/2πrl where Cin and Cout are the concentration of test drug in the effluent perfusate through the inlet and outlet tube (μg·mL^−1), respectively. Qin and Qout represent the inlet and outlet volume of effluent perfusate (mL), respectively. Q is the volume flow rate of perfusion (mL·h^−1). V is the volume of the intestinal segment concerned (mL). 2πrl is the area of the mass transfer surface of intestinal segment concerned (cm^2). […]

[3] = tested on: rat duodenum; test: SPIP of MDQ-TS with or without EDTA (tight junction modulator); assay type: in vivo; settings: MDQ-TS 2.5 mg/mL, EDTA 2.5 mmol·L^−1
Protocol: as §1, §2, §3

[4] = Stability in outflow perfusate matrix; assay type: physicochemical; settings: 37 °C
Protocol: The chromatographic method was validated for specificity, linearity and LOQ, accuracy and precision, extraction recovery, matrix, and stability. The validation parameters were studied using drug-free (blank) intestinal perfusate mixture that had passed through intestinal segments, and had been collected from five different rats. Specificity was evaluated by analyzing the intestinal perfusion blank and perfusion blank spiked with analytes to investigate the potential interferences of intestinal perfusate endogenous with the analytes; calibration and quality control (QC) samples were obtained by spiking mixed working standard solution in blank intestinal perfusion buffer. Calibration curves were constructed in the range of 20–1000 μg·mL^−1 for C1 (20, 40, 100, 200, 400, and 1000 μg·mL^−1), and 8.0–400.0 μg·mL^−1 for C2, C3, C4, DC1 and DC2 (8.0, 16.0, 40.0, 80.0, 160.0, and 400.0 μg·mL^−1). A weighted (1/x^2) linear least-squares linear regression method was used to determine the slope, intercept, and correlation coefficient; LOQ was determined by injection a series of standard solutions until the signal-to-noise (S/N) ratio was 10; Precision and accuracy were assessed at low, medium, and high concentration levels (40, 200, and 800 μg·mL^−1 for C1; 16, 80, and 320 μg·mL^−1 for C2, C3, C4, DC1, and DC2). Intra-day data was obtained by assaying six replicates at each concentration level in a day, and inter-day data was determined by analyzing QC samples in duplicates during three separate and successive days; The extraction recovery of the six analytes and IS from the outflow perfusate matrix was determined by comparing the mean peak areas of six replicates processed QC samples at each concentration level spiked before extraciton with those from outflow perfusate spiked after extraction; Matrix effect was assessed by comparing the mean peak areas of six replicates at each concentration level dissolved in the post-extracted intestinal perfusate matrix with those of neat standards (C1, C2, C3, C4, DC1, DC2, and IS) spiked in methanol at corresponding concentration levels; Stabilities of C1, C2, C3, C4, DC1, and DC2 in outflow perfusate matrix (12 h, 37 °C), processed samples (auto-sampler condition for 24 h), after freeze-thaw cycle and long-term cold storage (−20 °C, 14 days) were assayed by QC samples in six replicates at three concentration level.

[5] = MDQ-TS form 1.25 mg·mL^−1, duodenum, n = 5
[6] = MDQ-TS form 1.25 mg·mL^−1, ileum, n = 5
[7] = MDQ-TS form 1.25 mg·mL^−1, jejunum, n = 5
[8] = MDQ-TS form 2.5 mg·mL^−1, duodenum, n = 5
[9] = MDQ-TS form 2.5 mg·mL^−1, ileum, n = 5
[10] = MDQ-TS form 2.5 mg·mL^−1, jejunum, n = 5
[11] = MDQ-TS form 5.0 mg·mL^−1, duodenum, n = 5
[12] = MDQ-TS form 5.0 mg·mL^−1, ileum, n = 5
[13] = MDQ-TS form 5.0 mg·mL^−1, jejunum, n = 5
[14] = administrated in MDQ-TS form, summary bound (except DC2 in 1.25 mg·mL^−1 MDQ-TS group)

| Molecule | Papp [1, 5] | Papp [1, 6] | Papp [1, 7] | Papp [1, 8] | Papp [1, 9] | Papp [1, 10] | Papp [1, 11] | Papp [1, 12] | Papp [1, 13] | Papp [1, 14] | decrease of absorption compared with non-Amantadine added group [2] | Ka increase in comparison with non-EDTA added group [3] | Papp increase in comparison with non-EDTA added group [3] | stability in outflow perfusate matrix [4] | absorption when co-perfusion with Amantadine ([2]; amantadine 2.5 mmol·L^−1, result in words) |
| --- | --- | --- | --- | --- | --- | --- | --- | --- | --- | --- | --- | --- | --- | --- | --- |
| C[C@@H]1CC[C@]2(C(=O)O)CC[C@]3(C)C(=CC[C@@H]4[C@@]5(C)CC[C@H](O)[C@@](C)(C(=O)O)[C@@H]5CC[C@]43C)[C@@H]2[C@]1(C)O [C1, ilexgenin A] | 36.7 ×10⁻⁶ cm/s | 25 ×10⁻⁶ cm/s | 28.3 ×10⁻⁶ cm/s | 50 ×10⁻⁶ cm/s | 68.3 ×10⁻⁶ cm/s | 55 ×10⁻⁶ cm/s | 56.7 ×10⁻⁶ cm/s | 41.7 ×10⁻⁶ cm/s | 61.7 ×10⁻⁶ cm/s | > 20 ×10⁻⁶ cm/s | 40% | ~1.6 fold | about 1.7 fold | at least 12 h |  |
| CC1CCC2(C(=O)OC3OC(CO)C(O)C(O)C3O)CCC3(C)C(=CCC4C5(C)CCC(O)C(C)(C(=O)O)C5CCC43C)C2C1(C)O (centres unmarked) [C2, ilexsaponin A1] | 28.3 ×10⁻⁶ cm/s | 23.3 ×10⁻⁶ cm/s | 28.3 ×10⁻⁶ cm/s | 45 ×10⁻⁶ cm/s | 46.7 ×10⁻⁶ cm/s | 43.3 ×10⁻⁶ cm/s | 36.7 ×10⁻⁶ cm/s | 23.3 ×10⁻⁶ cm/s | 33.3 ×10⁻⁶ cm/s | > 20 ×10⁻⁶ cm/s | 71% | ~1.6 fold | ~1.2 fold | at least 12 h |  |
| C[C@H]1CC[C@]2(C(=O)O)CC[C@]3(C)C(=CC[C@@H]4[C@@]5(C)CC[C@H](O[C@@H]6OC[C@@H](O)[C@H](O)[C@H]6O[C@@H]6O[C@H](CO)[C@@H](O)[C@H](O)[C@H]6O)C(C)(C)[C@@H]5CC[C@]43C)[C@@H]2[C@]1(C)O [C3, ilexsaponin B1] |  |  |  |  |  |  |  |  |  |  |  | ~1.5 fold | ~1.9 fold | at least 12 h |  |
| C[C@@H]1O[C@@H](O[C@H]2[C@H](O[C@H]3[C@H](O[C@H]4CC[C@]5(C)[C@H]6CC=C7[C@H]8[C@](C(=O)O)(CC[C@H](C)[C@@]8(C)O)CC[C@@]7(C)[C@]6(C)CC[C@H]5C4(C)C)OC[C@@H](O)[C@@H]3O)O[C@H](CO)[C@@H](O)[C@@H]2O)[C@H](O)[C@H](O)[C@H]1O [C4, ilexsaponin B2] |  |  |  |  |  |  |  |  |  |  | 31% | ~1.5 fold | ~1.5 fold | at least 12 h |  |
| C[C@@H]1O[C@@H](O[C@H]2[C@H](O[C@H]3[C@H](O[C@H]4CC[C@]5(C)[C@H]6CC=C7[C@H]8[C@](C(=O)O[C@@H]9O[C@H](CO)[C@@H](O)[C@H](O)[C@H]9O)(CC[C@H](C)[C@@]8(C)O)CC[C@@]7(C)[C@]6(C)CC[C@H]5C4(C)C)OC[C@@H](O)[C@@H]3O)O[C@H](CO)[C@@H](O)[C@@H]2O)[C@H](O)[C@H](O)[C@H]1O [DC2, ilexoside O] |  |  |  |  |  |  |  |  |  |  | 100% | ~3.0 fold | ~2.1 fold | at least 12 h | completely inhibited |
| ilexsaponin B3 [DC1] |  |  |  |  |  |  |  |  |  |  | 53% | ~1.4 fold | ~1.4 fold | at least 12 h |  |
